Laboratory results from patent US20100168216A1, “PROSTAGLANDIN PHARMACEUTICAL COMPOSITIONS” (CTG PHARMA S.R.L., priority 2007, published 2010).

Experiments:
Thy-1 mRNA = test: Studies on rat retina: NMDA-induced loss of Thy-1 mRNA (neuroprotection); format: in vivo, Wistar rats; conditions: Thy-1 mRNA levels (relative to rhodopsin), PEG value taken as 100; topical 5 μl of 2% in 50% PEG bilaterally twice a day, 2 days before and 7 days after intravitreal NMDA
Description: The method described by Osborne N. N. et al. (2002) previously reported was used. Briefly, two groups of 16 Wistar rats (200-250 g) received either 5 μl doses of topical test compound (2% in 50% polyethylene glycol-PEG) or 5 μl of vehicle bilaterally twice a day for 2 days. On the third day N-methyl-D-aspartate (NMDA) (5 μl in sterile water) was injected intra-vitreally into a single eye of each animal. The other eye was injected with sterile water. The animals were treated then with test compound or vehicle for 7 days. The Thy-1 antigen is associated with ganglion cells and intraocular injections of NMDA cause a loss of Thy-1 mRNA. The rats were then killed and the retinas removed for mRNA analysis for Thy-1 antigen. Results are expressed as % value to the Thy-1 mRNA levels (relative to rhodopsin) of the treated groups, taking PEG value as 100.

[1] = system: IOP (Intraocular Pressure); test: Studies of IOP (intraocular pressure) on rabbit; format: in vivo, New Zealand albino rabbits; conditions: IOP mmHg as % of PEG value (100); topical application of 2% test compound, measured 60 minutes after
Description: The method by Osborne N. N. et al. (2002) previously reported was used. Briefly, two groups of adult male New Zealand albino rabbits weighing 3-3.5 kg were used in the experiments. IOP was measured using a properly calibrated tonometer immediately after topical application of 1 drop of 0.4% benoxinate hydrochloride. The animals received a topical application of 2% of test compound or PEG and measures taken 60 minutes after. Results are expressed as % value to the IOP mmHg values of the treatment groups, taking PEG value as 100.

**Q.** Which results are given for `O=C(CCCC=CC[C@@H]1[C@@H](CC[C@@H](O)CCc2ccccc2)[C@H](O)C[C@@H]1O)Oc1ccc(-c2cc(=S)ss2)cc1` (stereo in doubt) [Compound Example 2, (5Z)-7-[(1R,2R,3R,5S)-3,5-dihydroxy-2-[(3R)-3-hydroxy-5-phenylpentyl]cyclopentyl]-5-heptenoic acid 4-(3H-1,2-dithiole-3-thione-5-yl)-phenyl ester]?
**A.** NMDA effects (%) (Thy-1 mRNA): 52%; IOP values (%) [1]: 85%
